# Measurements reported in patent US4868195A, “Novel enolamides, pharmaceutical compositions and methods of use thereof for activity as modulators of the arachidonic acid cascade” (Warner-Lambert Company, priority 1988, dated 1989).
# Tested on: Human Leukocyte Lipoxygenase
# Experiment: Human Leukocyte Lipoxygenase Assay (LDA-H)
# Format: biochemical
# Details: Concentration 2.50 E -5 M
# In short: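 Enzyme from acetone-pentane powder of human buffy-coat leukocytes, extracted in 0.1M Tris pH 7.4. Compound preincubated 5 min with enzyme, then reaction started with arachidonic or linoleic acid (100 μM or 1.0 μM) and followed at 234 nm (conjugated diene) at 24° C. IC50 is molar concentration halving control rate.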
row,Compound,% Inhibition (LDAH) [%]
1,CCCCOc1ccc(CCc2ccc(NC(=O)C3CS(=O)(=O)c4ccccc4C3=O)cc2)cc1 (centres unmarked) [Example 48],0.0
2,"O=C(Nc1ccc(CCc2ccc3ccccc3c2)cc1)C1=C(O)c2ccccc2S(=O)(=O)C1 [Example 51, 4-Hydroxy-N-[4-[2-(2-naphthalenyl)ethyl]phenyl]-2H-1-benzothiopyran-3-carboxamide, 1,1-dioxide]",0.0

# Same assay, conditions: acetone-pentane powder enzyme, 234 nm, 24° C., 5 min preincubation; read-out: Concentration (M) for 50.0 % Inhibition, IC (LDAH)
row,Compound,IC50 [M]
1,"O=C(Nc1ccc(CCc2ccccc2)cc1)C1CS(=O)(=O)c2ccccc2C1=O (centres unmarked) [Example 16, 3,4-Dihydro-4-oxo-N-[(4-(2-phenyl)ethyl]-phenyl]-2H-1-benzothiopyran-3-carboxamide, 1,1-dioxide]",5.1e-05
2,"COc1ccc(CCc2ccc(NC(=O)c3sc4ccccc4c3O)cc2)cc1OC [Example 143, Benzo[b]thiophene-2-carboxamide, N-[4-[2-(3,4-dimethoxphenyl)ethyl]phenyl]-3-hydroxy]",4.4e-06

# Now from value to compound:
row,IC50 [M],Compound
1,4.5e-05,COc1ccc(CCc2ccc(NC(=O)C3CS(=O)(=O)c4ccccc4C3=O)cc2)cc1 (centres unmarked) [Example 41]
2,1.1e-05,"O=C(Nc1ccc(CCc2ccc(-c3ccccc3)cc2)cc1)C1CS(=O)(=O)c2ccccc2C1=O (centres unmarked) [Example 46, N-[4-[2-([1,1'-biphenyl]-4-yl)ethyl]phenyl]-3,4-dihydro-4-oxo-2H-1-benzothiopyran-3-carboxamide, 1,1-dioxide]"
3,3.5e-06,"O=C(Nc1ccc(CCc2ccc(Cl)cc2)cc1)C1CS(=O)(=O)c2ccccc2C1=O (centres unmarked) [Example 54, N-[4-[2-(4-Chlorophenyl)ethyl]phenyl]-3,4-dihydro-4-oxo-2H-1-benzothiopyran-3-carboxamide, 1,1-dioxide]"
4,2.5e-05,"CCCCCCCCCCc1ccc(NC(=O)C2CS(=O)(=O)c3ccccc3C2=O)cc1 (centres unmarked) [Example 60, N-(4-Decylphenyl)-3,4-dihydro-4-oxo-2H-1-benzoothiopyran-3-carboxamide, 1,1-dioxide]"
